According to article PMC3602187, “From Design to Screening: A New Antimicrobial Peptide Discovery Pipeline” (PLoS ONE, 2013):

tested on: Listeria innocua 33090; assay: colony overlay assay of peptide-secreting E. coli clones (library screening and re-test); assay type: cell-based; parameters: key: higher activity group (H); equal activity group (E); lower activity group (L); details: library screening; selected colonies pooled by zone size; peptides identified by 454 sequencing, full-length sequences with minimum 20 reads
Procedure: For the in vivo production of AMPs, we have employed an E. coli expression system that relies on periplasmic-expression of recombinant peptides in a host cell that lacks the lpo membrane protein, thus releasing the peptides present in the periplasmic space outside the cells. When the producer cells are grown into colonies on a solid substrate, it leads to accumulation of the recombinant peptides around the colony and allows for easy library screening. The screening assay used in this study was a modified version of the standard agar diffusion method as previously described. Library-transformed E. coli colonies are overlaid with a tester strain and incubated overnight to allow for peptide expression and tester strain growth. Next day, the plates are inspected for the formation of clear growth inhibition zones around E. coli colonies, which is an indication of active AMP production by the host colony.
For the construction of Pln-423 mutant library in E. coli, the expression system that consists of a periplasmic-leaky E. coli strain JE5505 and the expression plasmid pFLAG-CTS was employed for direct screening of peptide activities. It should be noted here that this plasmid contains ompA secretion signal sequence and cleavage of this sequence results in a serine residue at the N-terminal of all mature peptides. A total of 1.0×10^5 colonies, approximately 8-fold coverage of the library, were screened against Listeria innocua 33090 in five separate screening experiments. L. innocua was previously deemed as a suitable indicator for pathogenic L. monocytogenes displaying similar bacteriocin sensitivity, therefore it was used as a surrogate strain throughout this study. The selection process involved two criteria; 1) the size of the each inhibition zone was compared to that of wild-type Pln-423 as a correlation to anti-listerial activity level, 2) when several colonies formed inhibition zones that are very similar in size and character, only a few from each group were selected. The colonies were pooled into three groups based on their activities, giving 43 clones in a higher activity group (H), 81 clones in an equal activity group (E), and 241 clones in a lower activity group (L). Their plasmids were extracted from each activity group and analyzed by both Sanger and 454 high-throughput sequencing to identify peptide sequences.
These clones were also re-tested by colony overlay assay to compare their activities to wild-type Pln-423 based on the size of the inhibition zone around each clone (Figure 2-A). Based on this assay, all ten plantaricin mutants formed larger inhibition zones (10.3±0.5 to 11.4±0.3 mm zone diameter) compared to wild-type Pln-423 (6.2±0.2 mm) against L. innocua 33090. Out of those ten, three clones have a single mutation and […] clones have two mutations and the remaining single clone has three mutations. […] Positions like Ser23, Ser27, His28, and Lys36 were commonly mutated with similar amino acids indicating their potential role on higher peptide activity.
The screening method used in this study was a modified version of the standard colony overlay method as previously described. All the chemicals and growth media supplements were obtained from either Sigma-Aldrich or Fisher Scientific unless otherwise stated. Transformed E. coli JE5505 cells were diluted to 3000–5000 cfu (determined empirically prior to screening by plating serial dilutions of E. coli suspensions of a known absorbance and counting the colonies after incubation) in 25 ml LB soft agar (0.8%, 45°C) per screening plate and poured into 150 mm petri dishes. Once the media was solidified, they were overlaid with 10 ml LB soft agar (45°C) and incubated at 37°C for 24 h for host-colony formation. Next day, these plates were re-overlaid with 10 ml TSB soft agar containing 1 mM IPTG and the indicator strain Listeria innocua ATCC 33090 (diluted to OD600 = 0.03). […]

Row | Substance | activity group by size of inhibition zone compared to wild-type Pln-423
1 | KNYGNGVTCGKHSCSVNWGQAFSCSVEHLANFGHAKC* [GROUP E-UM-10] | E
2 | KYYGNGVTCDKHSCSVNWGQAFKCSVDHLANFGHGKC* [GROUP H-UM-4] | H
3 | KYYGNGVTCGKHSCRVNWAQAFSCTVSHLANFGHGKC* [GROUP L-UM-2] | L
4 | KYYGNGVTCGKHSCSVNAGQAFSCAVSHLANFGHGKC* [Pep-2_497] | E
5 | KYYGNGVTCGKHSCSVNWAQAFSCNVSHLANFGHGKC* [Pep-2_4793] | L
6 | KYYGNGVTCGKHSCSVNWAQAFSCSVSHLANFGHGHC* [Pep-2_1213] | L and E
7 | KYYGNGVTCGKHSCSVNWAQAFSCSVSHLANFGHGLC* [Pep-2_12029] | L
8 | KYYGNGVTCGKHSCSVNWAQAFSCSVVHLANFGHGKC* [Pep-2_6197] | L
9 | KYYGNGVTCGKHSCSVNWAQALSCSVSHLANFGHGKC* [Pep-2_1132] | L
10 | KYYGNGVTCGKHSCSVNWAQGFSCSVSHLANFGHGKC* [Pep-2_1127] | L
11 | KYYGNGVTCGKHSCSVNWGAAFSCAVSHLANFGHGKC* [Pep-2_5015] | L
12 | KYYGNGVTCGKHSCSVNWGDAFSCSVAHLANFGHGKC* [Pep-2_1487] | L
13 | KYYGNGVTCGKHSCSVNWGEAFSCAVSHLANFGHGKC* [Pep-2_5012] | E
14 | KYYGNGVTCGKHSCSVNWGEAFSCSVHHLANFGHGKC* [Pep-2_5876] | E
15 | KYYGNGVTCGKHSCSVNWGEAFSCSVSHLANYGHGKC* [GROUP E-UM-2] | E
16 | KYYGNGVTCGKHSCSVNWGEAFVCSVSHLANFGHGKC* [Pep-2_3608] | E
17 | KYYGNGVTCGKHSCSVNWGGAFSCSVSHLANFGHGWC* [Pep-2_12251] | L
18 | KYYGNGVTCGKHSCSVNWGGALSCSVSHLANFGHGKC* [Pep-2_1780] | L
19 | KYYGNGVTCGKHSCSVNWGHAFSCSVSHLANFGHGHC* [Pep-2_11707] | L
20 | KYYGNGVTCGKHSCSVNWGKAFSCGVSHLANFGHGKC* [Pep-2_1367] | L
21 | KYYGNGVTCGKHSCSVNWGKAFSCSVSMLANFGHGKC* [Pep-2_1384] | L

Row | Substance | activity group by size of inhibition zone compared to wild-type Pln-423
22 | KYYGNGVTCGKHSCSVNWGLAFSCSVSNLANFGHGKC* [Pep-2_6742] | L
23 | KYYGNGVTCGKHSCSVNWGPAFSCSVSRLANFGHGKC* [Pep-2_6528] | L
24 | KYYGNGVTCGKHSCSVNWGQACSCSVSHLANFGHGKC* [Pep-1_30] | L
25 | KYYGNGVTCGKHSCSVNWGQAFACSVSHLANFGFGKC* [GROUP L-UM-23] | L
26 | KYYGNGVTCGKHSCSVNWGQAFACSVSHLANFGHGFC* [Pep-2_3808] | L and E
27 | KYYGNGVTCGKHSCSVNWGQAFACSVSHLANFGHGHC* [Pep-2_11729] | L
28 | KYYGNGVTCGKHSCSVNWGQAFACSVSHLANFGHGKC* [Pep-1_35] | E
29 | KYYGNGVTCGKHSCSVNWGQAFACSVSHLANFGHGWC* [Pep-2_12269] | L
30 | KYYGNGVTCGKHSCSVNWGQAFCCSVSHLANFGHGKC* [GROUP L-UM-17] | L
31 | KYYGNGVTCGKHSCSVNWGQAFCCSVSHLANFGHGSC* [Pep-2_11946] | L
32 | KYYGNGVTCGKHSCSVNWGQAFDCSVSHLANFGHGKC* [GROUP E-UM-1] | E
33 | KYYGNGVTCGKHSCSVNWGQAFDCSVSHLANFGHGKC* [GROUP H-UM-1] | H
34 | KYYGNGVTCGKHSCSVNWGQAFDCSVSHLANFGHGKC* [GROUP L-UM-4] | L
35 | KYYGNGVTCGKHSCSVNWGQAFECRVSHLANFGHGKC* [Pep-2_3415] | L and H
36 | KYYGNGVTCGKHSCSVNWGQAFECSVDHLANFGHGKC* [Pep-2_3428] | E
37 | KYYGNGVTCGKHSCSVNWGQAFECSVSHIANFGHGKC* [Pep-2_3442] | E and H
38 | KYYGNGVTCGKHSCSVNWGQAFECSVSHLANFGHGKC* [Pep-1_32] | L and H
39 | KYYGNGVTCGKHSCSVNWGQAFECSVSHLANFGHNKC* [Pep-2_3477] | L
40 | KYYGNGVTCGKHSCSVNWGQAFECSVSHLANFGMGKC* [Pep-2_10754] | E
41 | KYYGNGVTCGKHSCSVNWGQAFECSVSHLATFGHGKC* [Pep-2_3453] | E
42 | KYYGNGVTCGKHSCSVNWGQAFECSVSRLANFGHGKC* [Pep-2_3433] | E

Row | Substance | activity group by size of inhibition zone compared to wild-type Pln-423
43 | KYYGNGVTCGKHSCSVNWGQAFECSVSWLANFGHGKC* [Pep-2_3438] | L
44 | KYYGNGVTCGKHSCSVNWGQAFKCSVIHLANFGHGKC* [Pep-2_3322] | L
45 | KYYGNGVTCGKHSCSVNWGQAFKCSVSLLANFGHGKC* [Pep-2_3328] | L
46 | KYYGNGVTCGKHSCSVNWGQAFMCSLSHLANFGHGKC* [GROUP L-UM-7] | L
47 | KYYGNGVTCGKHSCSVNWGQAFMCSVEHLANFGHGKC* [Pep-2_6004] | L
48 | KYYGNGVTCGKHSCSVNWGQAFNCSVENLANFGHGKC* [GROUP H-UM-3] | H
49 | KYYGNGVTCGKHSCSVNWGQAFSCAFSHLANFGHGKC* [Pep-2_5044] | L
50 | KYYGNGVTCGKHSCSVNWGQAFSCAVSALANFGHGKC* [Pep-2_5057] | L
51 | KYYGNGVTCGKHSCSVNWGQAFSCAVSHLANFGHGKC* [Pep-1_47] | L
52 | KYYGNGVTCGKHSCSVNWGQAFSCAVSHLANFGHHKC* [Pep-2_5095] | L
53 | KYYGNGVTCGKHSCSVNWGQAFSCAVSHLANFGVGKC* [Pep-2_5092] | L
54 | KYYGNGVTCGKHSCSVNWGQAFSCAVSRLANFGHGKC* [Pep-2_5053] | L
55 | KYYGNGVTCGKHSCSVNWGQAFSCCVSHLANFGHGKC* [GROUP L-UM-1] | L
56 | KYYGNGVTCGKHSCSVNWGQAFSCFVSRLANFGHGKC* [Pep-2_6556] | L
57 | KYYGNGVTCGKHSCSVNWGQAFSCGVSHLANFGHGKC* [GROUP E-UM-7] | E
58 | KYYGNGVTCGKHSCSVNWGQAFSCGVSHLANMGHGKC* [Pep-2_9473] | H
59 | KYYGNGVTCGKHSCSVNWGQAFSCHVDHLANFGHGKC* [Pep-2_4616] | E
60 | KYYGNGVTCGKHSCSVNWGQAFSCHVSHLANFGHGKC* [Pep-1_43] | L
61 | KYYGNGVTCGKHSCSVNWGQAFSCHVSTLANFGHGKC* [Pep-2_4623] | L
